From patent publication US12389907B2, “Compounds with nematicidal activity to pinewood nematode Bursaphelenchus xylophilus” (KOREA ADVANCED INSTITUTE OF SCIENCE AND TECHNOLOGY, priority 2023, dated 2025)

System: pinewood nematode (Bursaphelenchus xylophilus)
Experiment: Nematode screening: mortality of pinewood nematode in 96-well plate, propidium iodide staining
Assay type: cell-based
Conditions: compound dissolved in polar solvent DMSO, nematode treated with the solution
Method: Nematode Screening Method and Test Results
(1) A pinewood nematode sample was prepared so that 130 to 150 nematodes were present per 40 μL.
(2) The pinewood nematode sample was dispensed into a 96-well plate by 40 μL. Triplicates were prepared for each sample.
(3) Each compound was dispensed into each well containing the pinewood nematode sample. The tested compounds were (±)-orthosporin and 6,8-dihydroxy-3-methylisocoumarin, and each compound was dissolved in 1% DMSO solvent at a concentration of 20 μM. The chemical formulas of the compounds are illustrated in FIG. 1.
(4) After 120 hours, 20 μL of 50 μM propidium iodide was dispensed into each well containing the sample, and then shaking incubation was performed at RT for 15 minutes.
(5) The mortality rate was evaluated by counting only dead pinewood nematodes stained red in the total number of nematodes using a fluorescence microscope.

With `Cc1cc2cc(O)cc(O)c2c(=O)o1` [Chemical Formula 2, 6,8-dihydroxy-3-methyl-1H-isochromen-1-one] the “effect of killing the nematode” value was “have the effect of killing the nematode”.

In the case of `CC(O)Cc1cc2cc(O)cc(O)c2c(=O)o1` (racemic) [Chemical Formula 3, 6,8-dihydroxy-3-(2-hydroxypropyl)-1H-isochromen-1-one], the “effect of killing the nematode” value is reported as “have the effect of killing the nematode”.
